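Five compound concentrations were applied to cells in 96-well plates for 48 hours; endpoints were derived by simple linear interpolation of the resulting dose-response curve. GI50: concentration for 50% inhibition of growth. TGI: concentration producing complete growth inhibition.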
Tests used:
Experiment in all cases: NCI tumour cell line growth inhibition, 48 h
BT-549 breast = tested on: BT-549 breast
OVCAR-3 ovarian = tested on: OVCAR-3 ovarian
TK-10 renal = tested on: TK-10 renal
HS 578T breast = tested on: HS 578T breast
HL-60(TB) leukemia = tested on: HL-60(TB) leukemia
SK-MEL-2 melanoma = tested on: SK-MEL-2 melanoma
KM12 colon = tested on: KM12 colon
OVCAR-5 ovarian = tested on: OVCAR-5 ovarian
SW-620 colon = tested on: SW-620 colon
PC-3 prostate = tested on: PC-3 prostate

CCCCCCCCCCCCCCCCCCOCC(O)COP(=O)(O)OCC1OC(n2cc(F)c(=O)[nH]c2=O)CC1O (configuration not stated)
TGI (BT-549 breast): 27.3 µM
TGI (OVCAR-3 ovarian): 46.7 µM
TGI (TK-10 renal): 24.6 µM
TGI (HS 578T breast): 23.5 µM
TGI (HL-60(TB) leukemia): 25.1 µM
TGI (SK-MEL-2 melanoma): 43.2 µM
TGI (KM12 colon): 51 µM
TGI (OVCAR-5 ovarian): 26.3 µM
TGI (SW-620 colon): > 61.4 µM
TGI (PC-3 prostate): 18.8 µM

O=C(O)c1ccc(Nc2nc3cc(C(F)(F)F)ccc3nc2C(=O)O)cc1
TGI (BT-549 breast): > 100 µM
TGI (OVCAR-3 ovarian): > 100 µM
TGI (HS 578T breast): > 100 µM
TGI (HL-60(TB) leukemia): > 100 µM
TGI (SK-MEL-2 melanoma): > 100 µM
TGI (KM12 colon): > 100 µM
TGI (OVCAR-5 ovarian): > 100 µM
TGI (SW-620 colon): > 100 µM
TGI (PC-3 prostate): > 100 µM

COC(=O)C(C)Sc1nc2cc(Cl)ccc2s1 (configuration not stated)
TGI (BT-549 breast): > 100 µM
TGI (OVCAR-3 ovarian): > 100 µM
TGI (HS 578T breast): > 100 µM
TGI (KM12 colon): > 100 µM
TGI (OVCAR-5 ovarian): > 100 µM
TGI (SW-620 colon): > 100 µM
TGI (PC-3 prostate): > 100 µM

CCCCSc1n/c(=C\c2ccc(N(C)C)cc2)c2nnnn12
TGI (BT-549 breast): > 100 µM
TGI (OVCAR-3 ovarian): > 100 µM
TGI (TK-10 renal): > 100 µM
TGI (HS 578T breast): > 100 µM
TGI (HL-60(TB) leukemia): > 100 µM
TGI (SK-MEL-2 melanoma): > 100 µM
TGI (KM12 colon): > 100 µM
TGI (OVCAR-5 ovarian): > 100 µM
TGI (SW-620 colon): > 100 µM
TGI (PC-3 prostate): > 100 µM

N#CC1=CNc2sccc2S1(=O)=O
TGI (BT-549 breast): > 100 µM
TGI (OVCAR-3 ovarian): > 100 µM
TGI (TK-10 renal): > 100 µM
TGI (HS 578T breast): > 100 µM
TGI (SK-MEL-2 melanoma): > 100 µM
TGI (KM12 colon): > 100 µM
TGI (OVCAR-5 ovarian): > 100 µM
TGI (SW-620 colon): > 100 µM
TGI (PC-3 prostate): > 100 µM

OCCN=C1Nc2ccc(Cl)cc2C(=S)N2CSC[C@@H]12
TGI (OVCAR-3 ovarian): > 100 µM
TGI (SK-MEL-2 melanoma): > 100 µM
TGI (KM12 colon): > 100 µM
TGI (OVCAR-5 ovarian): > 100 µM
TGI (SW-620 colon): > 100 µM
TGI (PC-3 prostate): > 100 µM

COc1ccc(CNc2nc(NCc3ccc(OC)cc3)nc(N3CCOCC3)n2)cc1
TGI (BT-549 breast): > 100 µM
TGI (OVCAR-3 ovarian): 6.81 µM
TGI (TK-10 renal): 28.8 µM
TGI (HS 578T breast): > 100 µM
TGI (HL-60(TB) leukemia): 13.6 µM
TGI (SK-MEL-2 melanoma): > 100 µM
TGI (KM12 colon): 8.09 µM
TGI (OVCAR-5 ovarian): 41.6 µM
TGI (SW-620 colon): > 100 µM
TGI (PC-3 prostate): > 100 µM

COc1cc(/C=C2/SC(c3ccccc3)N(c3cccc([N+](=O)[O-])c3)C2=O)cc(OC)c1OC (configuration not stated)
TGI (BT-549 breast): > 100 µM
TGI (OVCAR-3 ovarian): > 100 µM
TGI (TK-10 renal): > 100 µM
TGI (HS 578T breast): > 100 µM
TGI (HL-60(TB) leukemia): > 100 µM
TGI (SK-MEL-2 melanoma): > 100 µM
TGI (KM12 colon): > 100 µM
TGI (OVCAR-5 ovarian): > 100 µM
TGI (SW-620 colon): > 100 µM

COc1ccc(NC2Oc3cc4c(cc3C(c3cc(OC)c(O)c(OC)c3)C2C)OCO4)cc1 (configuration not stated)
TGI (BT-549 breast): > 100 µM
TGI (OVCAR-3 ovarian): > 100 µM
TGI (TK-10 renal): 17.7 µM
TGI (HL-60(TB) leukemia): 4.51 µM
TGI (SK-MEL-2 melanoma): 6.72 µM
TGI (KM12 colon): > 100 µM
TGI (OVCAR-5 ovarian): 73.7 µM
TGI (SW-620 colon): > 100 µM
TGI (PC-3 prostate): > 100 µM

CCOC(=O)c1cn(-c2ccc(Cl)cc2)c(=O)n2c1nc1ccccc12
TGI (BT-549 breast): > 100 µM
TGI (OVCAR-3 ovarian): > 100 µM
TGI (SK-MEL-2 melanoma): > 100 µM
TGI (KM12 colon): > 100 µM
TGI (OVCAR-5 ovarian): > 100 µM
TGI (SW-620 colon): > 100 µM
TGI (PC-3 prostate): > 100 µM

C=C1C[C@]23C[C@@]1(O)CC[C@H]2[C@@]12C=C[C@H](O)[C@@](C)(C(=O)O1)[C@H]2[C@@H]3C(=O)O
TGI (OVCAR-3 ovarian): > 100 µM
TGI (TK-10 renal): > 100 µM
TGI (HL-60(TB) leukemia): > 100 µM
TGI (SK-MEL-2 melanoma): > 100 µM
TGI (KM12 colon): > 100 µM
TGI (OVCAR-5 ovarian): > 100 µM
TGI (SW-620 colon): > 100 µM

CSc1ncc2c(n1)-c1ccccc1OC2N1CCCC1 (configuration not stated)
TGI (BT-549 breast): > 100 µM
TGI (OVCAR-3 ovarian): > 100 µM
TGI (TK-10 renal): > 100 µM
TGI (HS 578T breast): > 100 µM
TGI (HL-60(TB) leukemia): > 100 µM
TGI (SK-MEL-2 melanoma): > 100 µM
TGI (KM12 colon): > 100 µM
TGI (OVCAR-5 ovarian): > 100 µM
TGI (SW-620 colon): > 100 µM
TGI (PC-3 prostate): > 100 µM

CC(C)n1c(=O)n(-c2ccccc2)n(C(C)(C)C)c1=O
TGI (BT-549 breast): > 100 µM
TGI (OVCAR-3 ovarian): > 100 µM
TGI (TK-10 renal): > 100 µM
TGI (HS 578T breast): > 100 µM
TGI (HL-60(TB) leukemia): > 100 µM
TGI (SK-MEL-2 melanoma): > 100 µM
TGI (KM12 colon): > 100 µM
TGI (OVCAR-5 ovarian): > 100 µM
TGI (SW-620 colon): > 100 µM
TGI (PC-3 prostate): > 100 µM

CSC(=NC1=NC(C(F)(F)F)(C(F)(F)F)N=C(c2ccccc2)O1)SC
TGI (BT-549 breast): 82.4 µM
TGI (OVCAR-3 ovarian): 63.9 µM
TGI (TK-10 renal): > 100 µM
TGI (HS 578T breast): 72.5 µM
TGI (HL-60(TB) leukemia): 64 µM
TGI (SK-MEL-2 melanoma): 55.9 µM
TGI (KM12 colon): 20.7 µM
TGI (OVCAR-5 ovarian): 82.3 µM
TGI (SW-620 colon): > 100 µM
TGI (PC-3 prostate): 38.9 µM

N#CCCN(CCCN(C(=O)Nc1ccccc1)c1ccccc1)C(=O)Nc1ccccc1
TGI (BT-549 breast): > 100 µM
TGI (OVCAR-3 ovarian): > 100 µM
TGI (TK-10 renal): > 100 µM
TGI (HL-60(TB) leukemia): > 100 µM
TGI (SK-MEL-2 melanoma): > 100 µM
TGI (KM12 colon): > 100 µM
TGI (OVCAR-5 ovarian): > 100 µM
TGI (SW-620 colon): > 100 µM
TGI (PC-3 prostate): > 100 µM

COc1ccc2c(c1)CCc1c-2n(CCN(C)C)c2ccc(OC)cc12
TGI (BT-549 breast): > 100 µM
TGI (OVCAR-3 ovarian): > 100 µM
TGI (TK-10 renal): 80.3 µM
TGI (HS 578T breast): 77 µM
TGI (SK-MEL-2 melanoma): 40 µM
TGI (KM12 colon): 86.7 µM
TGI (OVCAR-5 ovarian): 51.6 µM
TGI (SW-620 colon): 74.5 µM
TGI (PC-3 prostate): 46 µM

COS(=O)c1cc(Cl)cc(Cl)c1O (configuration not stated)
TGI (OVCAR-3 ovarian): > 100 µM
TGI (TK-10 renal): > 100 µM
TGI (HL-60(TB) leukemia): > 100 µM
TGI (SK-MEL-2 melanoma): > 100 µM
TGI (KM12 colon): > 100 µM
TGI (OVCAR-5 ovarian): > 100 µM

O=C(O)c1ccccc1/C=N\NC1=NCCCCN1
TGI (BT-549 breast): > 100 µM
TGI (OVCAR-3 ovarian): > 100 µM
TGI (TK-10 renal): > 100 µM
TGI (HS 578T breast): > 100 µM
TGI (SK-MEL-2 melanoma): > 100 µM
TGI (KM12 colon): > 100 µM
TGI (OVCAR-5 ovarian): > 100 µM
TGI (SW-620 colon): > 100 µM
TGI (PC-3 prostate): > 100 µM

CSC1SCC2C(=O)N(C)C3(CC3C)C(=O)OCC(NC(=O)c3nc4ccccc4cc3O)C(=O)NC(C)C(=O)N(C)C1C(=O)N(C)C1(CC1C)C(=O)OCC(NC(=O)c1nc3ccccc3cc1O)C(=O)NC(C)C(=O)N2C (configuration not stated)
TGI (OVCAR-3 ovarian): < 0.0001 µM
TGI (TK-10 renal): 0.000416 µM
TGI (HS 578T breast): < 0.0001 µM
TGI (HL-60(TB) leukemia): < 0.0001 µM
TGI (KM12 colon): < 0.0001 µM
TGI (SW-620 colon): > 100 µM

COc1c/c(=C2/C=c3ccccc3=N2)[nH]/c1=C/c1[nH]c(C)cc1C
GI50 (OVCAR-3 ovarian): 46 nM
TGI (OVCAR-3 ovarian): 1.02 µM
GI50 (HL-60(TB) leukemia): 50 nM
TGI (HL-60(TB) leukemia): 2.77 µM
GI50 (SK-MEL-2 melanoma): 29 nM
TGI (SK-MEL-2 melanoma): 0.119 µM
GI50 (PC-3 prostate): 59 nM
TGI (PC-3 prostate): > 100 µM

CCOC(=O)c1sc2c(c1OC(=O)c1ccccc1)c(=O)n(-c1ccccc1)c(=S)n2-c1ccccc1
TGI (OVCAR-3 ovarian): 95.6 µM
TGI (TK-10 renal): > 100 µM
TGI (HS 578T breast): 75.6 µM
TGI (HL-60(TB) leukemia): > 100 µM
TGI (KM12 colon): > 100 µM
TGI (OVCAR-5 ovarian): > 100 µM
TGI (SW-620 colon): > 100 µM
TGI (PC-3 prostate): > 100 µM

O=C(NCCO)c1ccc(Cl)cc1
TGI (BT-549 breast): > 100 µM
TGI (OVCAR-3 ovarian): > 100 µM
TGI (TK-10 renal): > 100 µM
TGI (HS 578T breast): > 100 µM
TGI (SK-MEL-2 melanoma): > 100 µM
TGI (KM12 colon): > 100 µM
TGI (OVCAR-5 ovarian): > 100 µM
TGI (SW-620 colon): > 100 µM
TGI (PC-3 prostate): > 100 µM
